Consider 25 molecules from ChEMBL document CHEMBL1145321, “Evaluation of indenoisoquinoline topoisomerase I inhibitors using a hollow fiber assay” (2006).

The test system of this assay is Panel NCI-60 (60 carcinoma cell lines). In words: Antiproliferative activity against human NCI60 cell line measured as mean graph midpoint. The format is functional.

Take `O=C1c2cc3c(cc2-c2c1c1ccccc1c(=O)n2CCCNCCCO)OCO3`: the Activity is 15.5 µM.
The value for `COc1cc2c(cc1[N+](=O)[O-])C(=O)N(CCCBr)[C@@H]1c3cc4c(cc3C(=O)[C@H]21)OCO4` was 0.016 µM; that for `COc1cc2c3c(n(C)c(=O)c2cc1OC)-c1cc2c(cc1C3=O)OCO2` was 20 µM; that for `O=C1c2ccccc2-c2c1c1ccccc1c(=O)n2CCCCCO` was 14.4 µM.
Molecule `COc1cc2c3c(n(CCCNCCN)c(=O)c2cc1OC)-c1cc2c(cc1C3=O)OCO2.Cl.Cl` came in with an Activity of 0.347 µM.
The same measure for `Cl.O=C1c2ccccc2-c2c1c1ccccc1c(=O)n2CCCNCCCn1ccnc1`: 1.01 µM; for `Cl.NCCCCn1c2c(c3ccccc3c1=O)C(=O)c1ccccc1-2`: 0.156 µM.
The same measure for `COc1cc2c(cc1OC)[C@H]1C(=O)c3cc4c(cc3[C@H]1N(Cc1ccccc1)C2=O)OCO4`: 1.18 µM; for `COc1cc2c(cc1OC)[C@H]1C(=O)c3cc4c(cc3[C@H]1N(CCCBr)C2=O)OCO4`: 0.69 µM.
The same measure for `CC[C@@]1(O)C(=O)OCc2c1cc1n(c2=O)Cc2cc3ccccc3nc2-1` [CAMPTOTHECIN]: 0.0405 µM; for `COc1cc2c3c(n(CCCN)c(=O)c2cc1OC)-c1cc2c(cc1C3=O)OCO2.Cl`: 0.16 µM.
Take `COc1cc2c3c(n(C)c(=O)c2cc1OC)-c1cc2c(cc1/C3=C/CCCI)OCO2`: the Activity came out at 8.49 µM.
Consider `COc1cc2c3c(n(CCCNCCNCCN)c(=O)c2cc1OC)-c1cc2c(cc1C3=O)OCO2.Cl`, for which the Activity was determined as 2.4 µM.
`CC(=O)O[C@H]1C(=O)[C@@]2(C)[C@H]([C@H](OC(=O)c3ccccc3)[C@]3(O)C[C@H](OC(=O)[C@H](O)[C@@H](NC(=O)c4ccccc4)c4ccccc4)C(C)=C1C3(C)C)[C@]1(OC(C)=O)CO[C@@H]1C[C@@H]2O` [PACLITAXEL] displayed an Activity of 0.0253 µM.
`CCCCn1c2c(c3cc(OC)c(OC)cc3c1=O)C(=O)c1cc3c(cc1-2)OCO3` had an Activity of 41.6 µM.
The value for `[N-]=[N+]=NCCCn1c2c(c3ccc([N+](=O)[O-])cc3c1=O)C(=O)c1cc3c(cc1-2)OCO3` was 0.098 µM.
Molecule `CC[C@]1(O)C[C@@H]2CN(CCc3c([nH]c4ccccc34)[C@@](C(=O)OC)(c3cc4c(cc3OC)N(C)[C@H]3[C@@](O)(C(=O)OC)[C@H](OC(C)=O)[C@]5(CC)C=CCN6CC[C@]43[C@@H]65)C2)C1.O=S(=O)(O)O` [VINBLASTINE SULFATE] had an Activity of 0.025 µM.
Turning to `Cl.NCCCn1c2c(c3ccc([N+](=O)[O-])cc3c1=O)C(=O)c1ccccc1-2`, the Activity turned out to be 0.146 µM.
With `Cl.NCCCn1c2c(c3ccccc3c1=O)C(=O)c1ccccc1-2`, the Activity was found to be 0.315 µM.
The value for `COc1cc2c3c(n(CCCCO)c(=O)c2cc1OC)-c1cc2c(cc1C3=O)OCO2` was 3.2 µM; that for `Cl.NCCCn1c2c(c3ccccc3c1=O)C(=O)c1cc3c(cc1-2)OCO3` was 0.251 µM; that for `COc1cc2c3c(n(CCN)c(=O)c2cc1OC)-c1cc2c(cc1C3=O)OCO2.Cl` was 0.338 µM.
In turn, `Cn1c2c(c3ccccc3c1=O)C(=O)c1cc3c(cc1-2)OCO3` yielded an Activity of 45 µM.
The same measure for `Cl.c1c2c(cc3c1OCO3)-c1ncc3cc4c(cc3c1C2)OCO4`: 0.271 µM; for `COc1cc2c3c(n(Cc4ccccc4)c(=O)c2cc1OC)-c1cc2c(cc1C3=O)OCO2`: 41.6 µM.
